From PMC2882366 (PLoS ONE, 2010)
Where two headings read alike, the source gives them in different places.

How the values were obtained:
[1] = Rapamycin whole blood pharmacokinetics (HPLC-MS/MS, non-compartmental) in dogs with osteosarcoma; assay type: in vivo, dog; conditions: for measurable trough levels: CD8, CD9; for concentration at 15 day / concentration at 8 day / concentration at 9 day / concentration at 48 h / Tmax / half-life / Cmax / AUC(0-t): dog, whole blood; for concentration at 15 day / concentration at 8 day / concentration at 9 day / concentration at 48 h: intramuscular; for concentration at 15 day: Day 15 (seven days after cessation), read-out: CD15; for concentration at 8 day: trough Day 8, median (range), read-out: CD8; for concentration at 9 day: trough Day 9, median (range), read-out: CD9; for concentration at 48 h: 48 h after first dose, read-out: C48h; for AUC(0-t): read-out: AUC0–48
Procedure: Subsequent doses were administered on days 3–8. Additional pharmacokinetic samples were obtained on days 8 (192h, day of definitive resection) and 9 (hr 216, after last day of dosing) and 15 (360 hr). […] Whole blood was transferred to cyrovials and stored at −80°C until analysis. Whole blood, serum and plasma were collected from all patients. Serum and plasma samples were stored for post-hoc hypothesis generating assessments.
The eluate was analyzed using HPLC with MS/MS detection. […] Clinical sample results were calculated using peak area ratios and calibration curves were generated using a weighted (1/x^2) linear least-squares regression. […] All data were acquired, processed, and reported using Applied Biosystems/MDS-Sciex Analyst Version 1.4 software (www.lifetechnologies.com, Carlsbad, CA).
Area under the concentration time curve to the time point measured at 48hr after the first dose (AUC0–48h) was calculated with the linear trapezoidal method. The terminal rate constant was derived from the slope of the natural log transformed concentrations and times on the terminal elimination phase of the decay curve. Terminal elimination half-life was calculated by dividing 0.693 by the terminal rate constant. The relationship of pharmacokinetic parameters and pharmacodynamic variables were examined using scatter plots.

[2] = tested on: p/t-S6RP in PBMC; test: PBMC p-S6RP/t-S6RP by electrochemiluminescence; assay type: in vivo, dog
Procedure: Modulation of mTOR pathway targets were evaluated in matched tumor ( Figure 4A .) and PBMC samples ( Figure 4B .) to compare p-S6RP and p-AKT expression pre- and post-rapamycin treatment. ECL techniques were utilized to accurately quantify the relative percentage of phospho-protein over total protein (p/t) in tumor and PBMC. Quality control assessments defined 10 tumor and 8 PBMC samples eligible for evaluation. […] Modulation of mTOR pathway targets in PBMC and tumor samples were concordant.
PBMCS were collected in two (2) 8 ml BD CPT vacutainers (Becton Dickinson, Franklin Lakes, NJ) with sodium heparin, each filled completely with whole blood. […]
The samples (cell lines, tumor, PBMC) used for ECL were prepared based on the Meso-Scale Discovery (MSD) lysate preparation protocol (Meso-Scale Discovery, Gaithersburg, MD) using complete lysis buffer with protease and phosphatase inhibitors. For quantitative analysis of phospho-proteins, duplex t/p-AKT (S473) and duplex t/p-S6RP (S240/S244) were obtained from MSD, used following manufacturer's instructions, and read with Sector Imager 2400 (MSD). […] Out of the 19 paired tumor biopsies analyzed, 9 were excluded due to values below the detection limit, of which 8 were from one trial site. […] PBMC from 8 patients were analyzed for p-S6RP/t-S6RP and all data was shown.

[3] = tested on: p/t-S6RP (S240/244) in canine osteosarcoma cell lines (BW and SK); test: ECL quantification of p/t-S6RP in canine osteosarcoma cell lines; assay type: cell-based
Procedure: (§1) Protein concentration of lysates was determined by BCA protein assay (Pierce, Thermo Fischer Scientific, Rockford, IL). Lysates were separated with Invitrogen NuPage gels (Invitrogen, Carlsbad, CA) and transferred to nitrocellulose membranes. The blots were probed for the proteins of interest with specific antibodies followed by a secondary antibody (Cell Signaling Technology, Inc, Danvers, MA) and then incubated with SuperSignal chemiluminescence substrate (Pierce). The blots were then exposed to Kodak Biomax Light Film (Kodak, Rochester, NY). The antibodies against AKT and p-AKT (Ser473), S6RP and p-S6RP, and actin were obtained from Cell Signaling.
The samples (cell lines, tumor, PBMC) used for ECL were prepared based on the Meso-Scale Discovery (MSD) lysate preparation protocol (Meso-Scale Discovery, Gaithersburg, MD) using complete lysis buffer with protease and phosphatase inhibitors. For quantitative analysis of phospho-proteins, duplex t/p-AKT (S473) and duplex t/p-S6RP (S240/S244) were obtained from MSD, used following manufacturer's instructions, and read with Sector Imager 2400 (MSD). A total of 25 ug of lysates were used per well for the duplex assays. Out of the 19 paired tumor biopsies analyzed, 9 were excluded due to values below the detection limit, of which 8 were from one trial site. […] PBMC from 8 patients were analyzed for p-S6RP/t-S6RP and all data was shown. […]

[4] = tested on: p-S6RP in canine osterosarcoma cell lines (BM, SK); test: Immunoblot of p-S6RP in canine osteosarcoma cell lines; assay type: cell-based; conditions: 100 nM, BM and SK cells
Procedure: as §1
(§2) Controls were Jurkat cells treated with LY (−) or PMA (+). B. Quantitative determination of total and p-S6RP (S240/244) with electrochemiluminescence (ECL) assay. C. […] (1.56 MB TIF) Click here for additional data file.

[5] = tested on: p-S6RP in human breast cancer cell lines (MCF7 and MDA231); test: Immunoblot of p-S6RP in human breast cancer cell lines; assay type: cell-based; conditions: 100 nM, MCF7 and MDA231 cells
Procedure: as §1, §2

[6] = tested on: dogs with appendicular osteosarcoma
Source text: All dogs underwent a pre-treatment tumor biopsy and collection of PBMC at study initiation. […] The defined study period was 15 days. Safety, tumoral pharmacodynamic (PD) modulation, correlation to surrogates (PBMC), and the relationship between PK and PD were study endpoints.
Escalation through 5 planned dose cohorts was based on assessment of dose limiting toxicities (DLT) using VCOG modified-CTCAE convention [32]. Age (range, 3.7–11.9 years; median 7.9 years), sex (14 spayed females, 8 castrated males) and breed (5 mixed-breed and 17 purebred) were recorded for all dogs enrolled on study ( Table 3 : Patient Characteristics).
Dogs underwent a complete physical examination, CBC, serum biochemical profile, UA and pre-treatment biopsies at Day 0. Vital signs (core temperature, pulse, respiratory rate) were recorded at baseline. […] Owners completed an Owner Assessment Form on Days 0, 8 and 15 to record impressions of their dog's clinical status throughout the study period.
Blood samples were collected to define hematologic and biochemical DLT. CBC, biochemical profile and urinalysis were evaluated at Day 0, and then weekly (pre-operatively at Day 8 and Day 15) to define safety. The Veterinary Cooperative Oncology Group Common Toxicity Criteria for Adverse Events (VCOG-CTCAE) was used to determine DLT, defined as any grade 3 or grade 4 (hematologic or non-hematologic) events [32]. […] MTD was defined as one dose level below the maximum achieved in dose-escalation. Any and all adverse events were collected within the electronic database reporting system (C3D) following strict one-week reporting timelines.

[7] = Mixed Breed (2 dogs), Boxer (1 dog), 0.04 mg/kg IM daily, N=3
[8] = Mixed Breed (2 dogs), Boxer (1 dog), 0.04 mg/kg IM, after first dose, median (range), N=3
[9] = 0.01 mg/kg IM, after first dose, median (range), N=3
[10] = 0.06 mg/kg IM, after first dose, median (range), N=7
[11] = 0.08 mg/kg IM, after first dose, median (range), N=4
[12] = 0.02 mg/kg IM, after first dose, median (range), N=4
[13] = both, various breeds (5 mixed-breed and 17 purebred dogs), dog, in vivo, 15 days

With `CO[C@H]1C[C@@H]2CC[C@@H](C)[C@@](O)(O2)C(=O)C(=O)N2CCCC[C@H]2C(=O)O[C@H]([C@H](C)C[C@@H]2CC[C@@H](O)[C@H](OC)C2)CC(=O)[C@H](C)/C=C(\C)[C@@H](O)[C@@H](OC)C(=O)[C@H](C)C[C@H](C)/C=C/C=C/C=C/1C` [rapamycin, Rapamycin] the “median trough concentrations on day 8 and 9 (CD8, CD9)” value ([1]; 0.06 mg/kg (approx 2.1 mg/day) IM daily) was “greater than 10 ng/mL”, the “median trough concentrations on day 8 and 9 (CD8, CD9)” value ([1]; 0.08 mg/kg (approx 2.8 mg/day) IM daily) was “greater than 10 ng/mL” and the measurable trough levels ([1]; 4th dose cohort (0.06 mg/kg, approx 2.1 mg)) was ≥ 10 ng/mL. For the same compound, the measurable trough levels ([1]; 5th dose cohort (0.08 mg/kg, approx 2.8 mg)) was ≥ 10 ng/mL, the concentration at 15 day ([1]; Mixed Breed (2 dogs), Boxer (1 dog), 0.04 mg/kg IM daily, median (range), N=3) was 1.56 ng/mL and the concentration at 8 day [1, 7] was 6.62 ng/mL. The concentration at 9 day [1, 7] was 7.92 ng/mL, the concentration at 48 h ([1]; Mixed Breed (2 dogs), Boxer (1 dog), 0.04 mg/kg IM, median (range), N=3) was 1.86 ng/mL and the Tmax [1, 8] was 24 h. It also gave a half-life ([1]; Mixed Breed (2 dogs), Boxer (1 dog), 0.04 mg/kg IM, terminal half-life, median (range), N=3, read-out: T1/2 (converted)) of 62.7 h, a Cmax [1, 8] of 2.87 ng/mL and an AUC(0-t) [1, 8] of 105 ng·h/mL. The Steady state ([1]; after 8 days of exposure, daily IM) was “not achieved”, the Tmax ([1]; both sexes, all dogs, 0.01–0.08 mg/kg IM, range) was 2 to 48 h and the half-life ([1]; both sexes, dogs, IM, read-out: terminal half-life) was > 60 h. For the same compound, the half-life ([1]; im, 0.01 mg/kg, read-out: T1/2 (converted)) was 115 h, the concentration at 15 day ([1]; 0.01 mg/kg IM daily, median (range), N=3) was 0.45 ng/mL and the concentration at 8 day ([1]; 0.01 mg/kg IM daily, N=3) was 2.78 ng/mL. The concentration at 9 day ([1]; 0.01 mg/kg IM daily, N=3) was 1.92 ng/mL, the concentration at 48 h ([1]; 0.01 mg/kg IM, median (range), N=3) was 0.91 ng/mL and the concentration at 15 day ([1]; 0.02 mg/kg IM daily, median (range), N=4) was 0.86 ng/mL. For the same compound, the concentration at 8 day ([1]; 0.02 mg/kg IM daily, N=4) was 5.63 ng/mL, the concentration at 9 day ([1]; 0.02 mg/kg IM daily, N=4) was 5.93 ng/mL and the concentration at 48 h ([1]; 0.02 mg/kg IM, median (range), N=4) was 1.26 ng/mL. It also gave a concentration at 15 day ([1]; 0.06 mg/kg IM daily, median (range), N=7) of 1.04 ng/mL, a concentration at 8 day ([1]; 0.06 mg/kg IM daily, N=7) of 9.84 ng/mL and a concentration at 9 day ([1]; 0.06 mg/kg IM daily, N=7) of 9.3 ng/mL. It also gave a concentration at 48 h ([1]; 0.06 mg/kg IM, median (range), N=7) of 3.61 ng/mL, a concentration at 15 day ([1]; 0.08 mg/kg IM daily, median (range), N=4) of 3.66 ng/mL and a concentration at 8 day ([1]; 0.08 mg/kg IM daily, N=4) of 15.4 ng/mL. It also gave a concentration at 9 day ([1]; 0.08 mg/kg IM daily, N=4) of 16.4 ng/mL, a concentration at 48 h ([1]; 0.08 mg/kg IM, median (range), N=4) of 4.6 ng/mL and a Tmax [1, 9] of 24 h. The Tmax ([1]; 0.02 mg/kg IM, after first dose, median, N=4) was 24 h, the half-life ([1]; 0.02 mg/kg IM, terminal half-life, median (range), N=4, read-out: T1/2 (converted)) was 70.8 h and the Tmax [1, 10] was 6 h. It also gave a half-life ([1]; 0.06 mg/kg IM, terminal half-life, median (range), N=7, read-out: T1/2 (converted)) of 72.7 h, a Tmax [1, 11] of 15 h and a half-life ([1]; 0.08 mg/kg IM, terminal half-life, median (range), N=4, read-out: T1/2 (converted)) of 86.6 h. It also gave a Cmax [1, 9] of 1.27 ng/mL, an AUC(0-t) [1, 9] of 47.4 ng·h/mL and a Cmax [1, 12] of 1.69 ng/mL. It also gave an AUC(0-t) [1, 12] of 64.3 ng·h/mL, a Cmax [1, 10] of 7.29 ng/mL and an AUC(0-t) [1, 10] of 285 ng·h/mL. For the same compound, the Cmax [1, 11] was 12.1 ng/mL, the AUC(0-t) [1, 11] was 309 ng·h/mL and the “systemic exposure (Cmax and AUC0–48h) versus dose” value ([1]; dose range 0.01–0.08 mg/kg IM) was “increased proportionally to rapamycin dose”. For the same compound, the “PBMC p/t-S6RP inhibition” value ([2]; Day 8, maintained through Day 15, n = 8, p<0.0001) was “highly significant”, the “dogs with PBMC phosphorylation of S6RP significantly inhibited” value ([2]; Day 8 after rapamycin therapy) was 8/8 and the “reduction of p/t-S6RP” value ([3]; BW and SK cells, rapamycin 100 nM for 4 hours vs untreated controls) was “approximately 50 ×”. The “inhibition of down-stream targets of mTOR” value ([3]; canine osteosarcoma cell lines, western blot and ECL) was “inhibits down-stream targets of mTOR in a dose-dependent fashion”, the “rapamycin-mediated inhibition of p-S6RP (immunoblot)” value [4] was “inhibition of p-S6RP” and the “rapamycin-mediated inhibition of p-S6RP (immunoblot)” value [5] was “inhibition of p-S6RP”. The “anorexia, self-limiting non-dose limiting toxicity (grade 1,2), number of dogs” value [6, 13] was 2, the “diarrhea, self-limiting non-dose limiting toxicity (grade 1,2), number of dogs” value [6, 13] was 1 and the “thrombocytopenia, self-limiting non-dose limiting toxicity (grade 1,2), number of dogs” value [6, 13] was 1. The “vomiting, self-limiting non-dose limiting toxicity (grade 1,2), number of dogs” value [6, 13] was 2, the febrile episodes reported ([6]; dog, in vivo) was “two” and the “immunosuppression and surgical incision healing delays” value ([6]; dog, in vivo) was “Neither immunosuppression nor surgical incision healing delays were reported”. The “lymphopenia, post-operative infection rate, surgical incision healing delays” value ([6]; dog, in vivo) was “no evident lymphopenia, increased post-operative infection rate, nor surgical incision healing delays”, the “neurological, respiratory, renal, or biochemical toxicities related to treatment” value ([6]; dog, in vivo) was “no clinically significant” and the “tolerability of dose escalation” value ([6]; dog, in vivo) was “well tolerated”. For the same compound, the “maximally tolerated dose (MTD)” value ([6]; escalation to 0.08 mg/kg IM daily, n = 19) was “not defined”.
